Laboratory results reported in patent US20170129911A1, “COMPLEXES COMPRISING A PLATINUM COMPOUND AND AN IMMUNE CHECKPOINT INHIBITOR AND RELATED METHODS” (Massachusetts Institute of Technology, priority 2015, published 2017).
Entries after “also recorded” stand apart in the source; their conditions may differ.

Legend:
[1] = tested on: SKOV3 cells; test: Immunoblotting of DNA damage response markers; format: cell-based, human; conditions: up to 48 h and 72 h
Procedure: The ability of 2 to induce DNA damage was investigated by monitoring changes in expression of markers of the damage response pathway by immunoblotting analyses.
Cells were washed with PBS, scraped into SDS-PAGE loading buffer (64 mM Tris-HCl (pH 6.8)/9.6% glycerol/2% SDS/5% β-mercaptoethanol/0.01% Bromophenol Blue), and incubated at 95° C. for 10 min. Whole cell lysates were resolved by 4-20% sodium dodecylsulphate polyacylamide gel electrophoresis (SDS-PAGE; 200 V for 25 min) followed by electro transfer to polyvinylidene difluoride membrane, PVDF (350 mA for 1 h). Membranes were blocked in 5% (w/v) bovine serum albumin in PBST (PBS/0.1% Tween 20) and incubated with the appropriate primary antibodies (Cell Signalling Technology and Santa Cruz). After incubation with horseradish peroxidase-conjugated secondary antibodies (Cell Signalling Technology), 1:1000, immuno complexes were detected with the ECL detection reagent (BioRad) and analyzed using UVP biospectrum imaging system fitted with a chemiluminescence filter.

[2] = tested on: SKOV3 cells; test: Subcellular distribution of platinum (GFAAS); format: cell-based, human; conditions: SKOV3, 5 μM, 17 h
Procedure: To gain further insight into the mode of action was studied of 1 and 2, the subcellular distribution of platinum. SKOV3 cells were incubated with the drug candidates (5 μM) for 17 h, using cisplatin as a control. The platinum content was measured by using GFAAS.
To measure cellular uptake, ca. 20 million SKOV3 cells were treated with 5 μM compounds 1, 2 and cisplatin at 37° C. for 17 h. The media were removed, and the cells were washed with PBS solution (1 mL×3), harvested, and centrifuged. The cell pellet was suspended in an appropriate volume of PBS to obtain a homogeneous suspension (100 μL). The nuclear and cytoplasmic extraction kit (NE-PER, Thermo Scientific Inc.) was used to extract the separate cytoplasmic, nuclear, and pelleted fractions. The fractions were mineralized with 70% HNO3 and then heated at 95° C. for 10 min. The platinum content was analyzed by GF-AAS. Cellular platinum levels were expressed as pmol of Pt per million cells. Results are presented as the mean of three determinations for each data point.

[3] = tested on: T-cells; test: Mixed leukocyte reaction (T-cell proliferation), PBMC/SKOV3 coculture; format: cell-based, human; conditions: SKOV3/MLR coculture, 2 10 μM, 6 days, CFSE flow cytometry
Procedure: To target a key component of the immunosuppression promoting IDO-AHR-IL6 loop, the immunomodulatory phenotype of 2 was investigated. A mixed leukocyte reaction (MLR) was carried out. In this experiment, suspended 2×10^5 peripheral blood mononuclear cells (PBMCs) stimulated with phytohemagglutinin (PHA-P), and 2×10^5 cells of PBMCs from unrelated healthy donors as responders stained with carboxyfluorescein succinimidyl ester (CFSE), a cell permeable fluorescent dye that binds amine residues (mostly lysines) covalently, through its succinimidyl ester group were cocultured with adherent SKOV-3 (2000 cells). After 6 days of culture, PBMCs were harvested by centrifugation of medium, stained with APC-anti CD3 and T-cell proliferation was assessed by flow cytometry. T-cells express CD3, a cell surface multimeric protein complex involved in T-cell development and activation.
SKOV3 cells (2×10^3) were seeded in 6-well plates. […] The T-cell population of PBMCs was measured by FACS Calibur-HTS flow cytometer (BD Biosciences) after staining with APC-anti CD3 antibody. PHA-P stimulated PBMCs (2×10^5) and carboxyfluorescein succinimidyl ester (CFSE) stained PBMCs (2×10^5) from unrelated donors were added in co-cultures of SKOV3 tumor cells (treated and untreated) and incubated for six days at 37° C., the and CFSE signal analyzed by flow cytometry on days 1 and 6.

[4] = Tolerability/toxicity in mice; format: in vivo
[5] = target: IDO (Homo sapiens, UniProt P14902); test: Cellular determination of kynurenine by HPLC in medium of SKOV3 cells; conditions: 2 10 μM vs (D)-1-MT 1 mM
Chain of IDO (P14902 whole entry): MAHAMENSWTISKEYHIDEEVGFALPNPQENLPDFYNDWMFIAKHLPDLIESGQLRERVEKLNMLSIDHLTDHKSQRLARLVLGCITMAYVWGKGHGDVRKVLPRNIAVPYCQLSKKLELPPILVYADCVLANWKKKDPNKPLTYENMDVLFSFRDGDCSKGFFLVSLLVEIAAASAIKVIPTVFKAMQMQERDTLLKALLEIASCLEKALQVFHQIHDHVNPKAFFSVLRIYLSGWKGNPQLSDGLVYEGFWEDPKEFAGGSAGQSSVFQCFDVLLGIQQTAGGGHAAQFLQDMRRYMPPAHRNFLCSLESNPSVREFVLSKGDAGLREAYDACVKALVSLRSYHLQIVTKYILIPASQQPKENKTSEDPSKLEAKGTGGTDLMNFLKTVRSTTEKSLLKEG

SMILES: CCCCCCCCCCCCCCCCNC(=O)[O][Pt]([NH2])([NH2])([Cl])([Cl])[O]C(=O)CCC(=O)NCCOC(=O)[C@H](N)Cc1cn(C)c2ccccc12 (mixture of isomers) [Compound 2, cis,cis,trans-[Pt(NH3)2Cl2(O2CC2H4OCNHC2H4O2C-D-1MT)(O2CNHC16H33)]]
- expression of DNA damage response markers [1]: marked time-dependent increase in expression of phosphorylated ATR, ATM, BRCA1, Chk1, Chk2, H2AX, and p53
- platinum content within the nucleus [2]: comparable to that of cisplatin
- alloreactive T-cell proliferation [3]: enhancement of alloreactive T-cell proliferation
- toxicity / tolerance in mice [4]: low toxicity in mice; also recorded: mice are tolerant
- block of kynurenine release in the medium in comparison to (D)-1-MT [5]: by a factor of three
